Results reported in patent US11318153B2, “Method of using Neoandrographolide for lowering blood sugar, lowering blood lipid, improving liver function and improving renal function” (Bioalpha International Sdn. Bhd., priority 2018, dated 2022).

Experiments:
Format in all cases: in vivo
[1] = test system: induced type 2 diabetic mice; experiment: Water intake test in induced type 2 diabetic mice; conditions: high dose 10 mg/kg and low dose 2.5 mg/kg; 40-day period; vs induction treatment group STZ
Protocol: (§1) Male ICR mice (19-21 g) were obtained from BioLASCO Taiwan Co., Ltd. The mice were kept in the animal center of Transworld University at a controlled temperature of 22±2° C., relative humidity 55±5%, and with 12 hour light/12 hour dark cycles for 1 week before the experiment. For the induction of type 2 diabetic mice (induction treatment group STZ), Nicotinamide (210 mg/kg b.w.) (Sigma, Saint Louis, Mo., USA), dissolved in saline was intraperitoneally injected into mice. After 15 minutes, the mice were administered with […] (STZ) (Sigma, 180 mg/kg bw, ip injection), which was dissolved in citrate buffer (pH 4.5) before use. The control group received both vehicles. During the experimental period, the animals' food intake and body weight were monitored once a week. […]
In general, diabetic patients usually have clinical symptoms of “drinking more water.” In this experimental example, the water intake was recorded in a 40-day period for the blank group Sham, the induction treatment group STZ, Neoandrographolide low dose group NeoL (2.5 mg/kg), Neoandrographolide middle dose group NeoM (5.0 mg/kg) and Neoandrographolide high dose group NeoH (10 mg/kg).

[2] = test system: induced type 2 diabetic mice; experiment: Oral glucose tolerance test; conditions: NeoL 2.5, NeoM 5.0, NeoH 10 mg/kg; within 0 to 3 hours after glucose 2 g/kg; vs induction treatment group STZ
Protocol: as §1, with “week. In addition, the dosage of the Neoandrographolide (Sigma-Aldrich Chemical Co., Missouri, USA) of the present invention is: NeoL (low dose group of Neoandrographolide): Neoandrographolide 2.5 mg/kg; NeoM (middle dose group of Neoandrographolide): Neoandrographolide 5.0 mg/kg; NeoH (high dose group of Neoandrographolide): Neoandrographolide 10 mg/kg. The above active ingredient was dissolved in Tween 20 and adjusted to a 0.5% methylcellulose (CMC) solution. The blank group (Sham) was normal mice without induction treatment.” for “week.”

[3] = test system: induced type 2 diabetic mice; experiment: Fasting blood glucose assay; conditions: NeoL 2.5, NeoM 5.0, NeoH 10 mg/kg; seven days after administration; vs induction treatment group STZ
Protocol: as §1
(§2) In this experimental example, the fasting blood glucose values were recorded in a 42-day period for the blank group Sham, the induction treatment group STZ, Neoandrographolide low dose group NeoL (2.5 mg/kg), Neoandrographolide middle dose group NeoM (5.0 mg/kg) and Neoandrographolide high dose group NeoH (10 mg/kg).

[4] = test system: induced type 2 diabetic mice; experiment: Glycated hemoglobin (HbA1c) assay; conditions: NeoL 2.5, NeoM 5.0, NeoH 10 mg/kg; after 42 days of continuous administration; vs induction treatment group STZ
Protocol: as §1
as §2, with “glycated hemoglobin (HbA1c)” for “fasting blood glucose”, “values of mice” for “values”, “period after continuous administration” for “period”

[5] = test system: induced type 2 diabetic mice; experiment: Aspartate aminotransferase (AST) assay
Protocol: (§3) Male ICR mice (19-21 g) were obtained from BioLASCO Taiwan Co., Ltd. The mice were kept in the animal center of Transworld University at a controlled temperature of 22±2° C., relative humidity 55±5%, and with 12 hour light/12 hour dark cycles for 1 week before the experiment. For the induction of type 2 diabetic mice (induction treatment group STZ), Nicotinamide (210 mg/kg b.w.) (Sigma, Saint Louis, Mo., USA), dissolved in saline was intraperitoneally injected into mice. After 15 minutes, the mice were administered with […] (STZ) (Sigma, 180 mg/kg bw, ip injection), which was dissolved in citrate buffer (pH 4.5) before use. The control group received both vehicles. During the experimental period, the animals' food intake and body weight were monitored once a week. In addition, the dosage of the Neoandrographolide (Sigma-Aldrich Chemical Co., Missouri, USA) of the present invention is: NeoL (low dose group of Neoandrographolide): Neoandrographolide 2.5 mg/kg; NeoM (middle dose group of Neoandrographolide): Neoandrographolide 5.0 mg/kg; NeoH (high dose group of Neoandrographolide): Neoandrographolide 10 mg/kg. The above active ingredient was dissolved in Tween 20 and adjusted to a 0.5% methylcellulose (CMC) solution. The blank group (Sham) was normal mice without induction treatment.
(§4) After completion of the test, surviving animals were sacrificed; before necropsy, blood samples were collected for serum biochemistry.
as §2, with “AST index of mice” for “fasting blood glucose values”, “period after continuous administration” for “period”

[6] = test system: induced type 2 diabetic mice; experiment: Triglyceride assay
Protocol: as §3, §4
as §2, with “triglyceride values and the total cholesterol in” for “fasting”, “of mice” for “glucose values”, “period after continuous administration” for “period”

[7] = test system: induced type 2 diabetic mice; experiment: Total cholesterol assay
Protocol: as §1
as §2, with “triglyceride values and the total cholesterol in” for “fasting”, “of mice” for “glucose values”, “period after continuous administration” for “period”

[8] = test system: induced type 2 diabetic mice; experiment: Uric acid assay; conditions: NeoL 2.5, NeoM 5.0, NeoH 10 mg/kg; after 42 days of continuous administration; vs induction treatment group STZ
Protocol: as §1
as §2, with “serum uric acid index of mice was” for “fasting blood glucose values were”, “period after continuous administration” for “period”

[9] = test system: induced type 2 diabetic mice; experiment: Serum creatinine assay; conditions: NeoL 2.5, NeoM 5.0, NeoH 10 mg/kg; after 42 days of continuous administration; vs induction treatment group STZ
Protocol: as §1
as §2, with “serum creatine index of mice was” for “fasting blood glucose values were”, “period after continuous administration” for “period”

[10] = NeoL 2.5, NeoM 5.0, NeoH 10 mg/kg, after 42 days of continuous administration, vs induction treatment group STZ

C=C1CC[C@@H]2[C@](C)(CO[C@@H]3O[C@H](CO)[C@@H](O)[C@H](O)[C@H]3O)CCC[C@@]2(C)[C@@H]1CCC1=CCOC1=O [Neoandrographolide]
amount of water intake [1]: significantly reduced | blood glucose levels in oral glucose tolerance test [2]: significantly lower | fasting blood glucose values [3]: significantly lower | HbA1c values [4]: significantly lower | AST values, low dose group ([5]; NeoL 2.5 mg/kg, 42 days, compared among the three dose groups): most significant reduction | AST index [5, 10]: slightly lower | minimum effective dose, improving liver function (AST) ([5]; judged from the experiment): around 2.5 mg/kg | dose dependence of triglyceride-lowering effect ([6]; 2.5 to 10 mg/kg, 42 days): dose-dependent | minimum effective dose, triglyceride-lowering effect ([6]; 42 days): 2.5 mg/kg | triglyceride values [6, 10]: lower | triglyceride values, middle and high dose groups ([6]; NeoM 5.0 mg/kg and NeoH 10 mg/kg, 42 days, compared among the three dose groups): lowest triglyceride values | minimum effective dose, lowering total cholesterol in the blood ([7]; 42 days): 2.5 mg/kg | total cholesterol values in the blood [7, 10]: lower | serum uric acid index [8]: significantly lower | serum creatinine index [9]: significantly lower
